Patent US20160304466A1, “NOVEL COMPOUNDS AS JNK KINASE INHIBITORS” (THE SCRIPPS RESEARCH INSTITUTE, priority 2013, published 2016)
pEC50: −log10 of the molar value.

Assays:
JNK2α2/SAPK1c, active = JNK2α2/SAPK1c, active (Homo sapiens, UniProt P45984); assay: Biochemical inhibition of JNK2; conditions: Table 1, compounds of formula (I); mean of n repeats
Method: A 10 point titration of all compounds was carried out in 3-fold dilutions from 10 pM-2000 nM. After 22 min, the kinase reaction was terminated by addition of 10 μl of quenching solution [50 mM Hepes, pH 7.0, with 14 mM EDTA, 0.01% Triton X-100, 400 mM KF (all from Sigma-Aldrich)]. The detection reagents, streptavidin-x1APC (200 nM) and europium cryptate-labeled rabbit polyclonal anti-phospho-ATF2 (1 nM), were from Cis-Bio. The HTRF signal was detected using an Envision plate reader (Perkin Elmer) 1 h post-quenching. The data from multiple different experiments were averaged and presented as the mean±standard deviation.

[1] = molecular target: JNK3/SAPK1b, Active (activated JNK3α1) (Homo sapiens, UniProt P53779); assay: Biochemical inhibition of JNK3 (HTRF enzyme inhibition assay); conditions: for pEC50: Table 1, compounds of formula (I), mean of n repeats; for IC50: Table 2, compounds of formula (II), read-out: JNK3 (nM) JNK activity (IC50)
Method: Enzyme inhibition studies were performed in 384-well polystyrene HTRF plates (Grainier) for 22 min at ambient temperature (˜22° C.) with 0.2 μM biotinylated FL-ATF2, 1 μM ATP, 0.75 nM activated JNK3α1 (with a control in the absence of kinase for determining the basal signal) in 10 μL volumes containing the final concentrations of the following: 50 mM Hepes, pH 7.0, 2.5 mM MgCl2, 0.1 mg/ml bovine serum albumin, 1 mM DL-dithiothreitol, 0.01% Triton X-100 (all from Sigma-Aldrich), and 5% DMSO (with or without compound). A 10 point titration of all compounds was carried out in 3-fold dilutions from 10 pM-2000 nM. After 22 min, the kinase reaction was terminated by addition of 10 μl of quenching solution [50 mM Hepes, pH 7.0, with 14 mM EDTA, 0.01% Triton X-100, 400 mM KF (all from Sigma-Aldrich)]. The detection reagents, streptavidin-x1APC (200 nM) and europium cryptate-labeled rabbit polyclonal anti-phospho-ATF2 (1 nM), were from Cis-Bio. The HTRF signal was detected using an Envision plate reader (Perkin Elmer) 1 h post-quenching. The data from multiple different experiments were averaged and presented as the mean±standard deviation. IC50 values were determined by fitting the data to the equation for a four-parameter logistic. p38 enzyme inhibition assays were performed identically to the JNK3 assays with the exception that the reaction time was […], 0.5 μM biotinylated FL-ATF2, ATP=11 μM, and p38 (Millipore)=3 nM.

JNK1α1/SAP1α, Active = JNK1α1/SAP1α, Active (Homo sapiens, UniProt P45983); assay: Biochemical inhibition of JNK1; conditions: for pEC50: Table 1, compounds of formula (I), mean of n repeats; for IC50: Table 2, compounds of formula (II), read-out: JNK1 (nM) JNK activity (IC50)
Chain of JNK1α1/SAP1α, Active (P45983 1-384 isoform P45983-2): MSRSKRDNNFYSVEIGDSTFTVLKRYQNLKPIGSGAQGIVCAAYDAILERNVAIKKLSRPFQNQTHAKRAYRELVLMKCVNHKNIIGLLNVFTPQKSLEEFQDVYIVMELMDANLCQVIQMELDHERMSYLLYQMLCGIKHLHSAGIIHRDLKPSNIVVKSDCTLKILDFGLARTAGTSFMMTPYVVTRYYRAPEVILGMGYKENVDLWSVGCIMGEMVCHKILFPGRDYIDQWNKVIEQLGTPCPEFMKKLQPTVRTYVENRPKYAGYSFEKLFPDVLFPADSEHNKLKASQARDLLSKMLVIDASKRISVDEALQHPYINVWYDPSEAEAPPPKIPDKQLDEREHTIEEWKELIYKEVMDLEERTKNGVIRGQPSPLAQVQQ

Chain of JNK3/SAPK1b, Active (activated JNK3α1) (P53779 1-422 isoform P53779-2): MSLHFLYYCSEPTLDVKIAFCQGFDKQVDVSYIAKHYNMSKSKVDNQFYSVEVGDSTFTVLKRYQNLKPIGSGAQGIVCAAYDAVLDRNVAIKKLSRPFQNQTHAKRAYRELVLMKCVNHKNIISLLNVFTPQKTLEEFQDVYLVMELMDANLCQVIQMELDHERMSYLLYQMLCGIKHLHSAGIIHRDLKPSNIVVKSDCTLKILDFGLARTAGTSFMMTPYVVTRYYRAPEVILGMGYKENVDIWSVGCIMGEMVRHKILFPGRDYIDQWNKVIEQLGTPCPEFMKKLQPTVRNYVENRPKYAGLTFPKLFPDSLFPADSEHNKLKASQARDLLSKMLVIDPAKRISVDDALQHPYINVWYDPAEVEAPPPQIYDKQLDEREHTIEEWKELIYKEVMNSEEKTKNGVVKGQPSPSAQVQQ
Chain of JNK2α2/SAPK1c, active (P45984 whole entry): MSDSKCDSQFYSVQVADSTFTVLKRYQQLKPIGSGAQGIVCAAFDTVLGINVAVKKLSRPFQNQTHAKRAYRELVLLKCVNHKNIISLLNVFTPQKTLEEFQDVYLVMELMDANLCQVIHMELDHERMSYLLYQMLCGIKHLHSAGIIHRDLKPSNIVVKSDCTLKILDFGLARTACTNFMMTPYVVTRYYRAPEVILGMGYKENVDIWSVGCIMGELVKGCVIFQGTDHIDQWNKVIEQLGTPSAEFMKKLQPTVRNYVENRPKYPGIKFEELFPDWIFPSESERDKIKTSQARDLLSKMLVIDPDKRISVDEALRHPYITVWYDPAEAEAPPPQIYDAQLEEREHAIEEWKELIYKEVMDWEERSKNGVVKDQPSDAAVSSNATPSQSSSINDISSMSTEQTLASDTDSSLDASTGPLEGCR

| Compound | pEC50 (JNK2α2/SAPK1c, active) | pEC50 [1] | pEC50 (JNK1α1/SAP1α, Active) | IC50 [1] | IC50 (JNK1α1/SAP1α, Active) |
| --- | --- | --- | --- | --- | --- |
| Cn1ccc(NC(=O)c2cccc(-n3cc(NC(=O)Nc4ccccc4Cl)cn3)c2)n1 [Example I-98, 3-(4-(3-(2-chlorophenyl)ureido)-1H-pyrazol-1-yl)-N-(1-methyl-1H-pyrazol-3-yl)benzamide] | > 6.70 | > 6.70 | 6.00 to 6.70 |  |  |
| Cc1nn(CCN2CCCC2)cc1NC(=O)c1cccc(-n2cc(NC(=O)Nc3ccccc3Cl)cn2)c1 [Example I-104, 3-(4-(3-(2-chlorophenyl)ureido)-1H-pyrazol-1-yl)-N-(3-methyl-1-(2-(pyrrolidin-1-yl)ethyl)-1H-pyrazol-4-yl)benzamide] | > 6.70 | > 6.70 | < 6.00 |  |  |
| Cc1cccc(CNC(=O)c2cccc(-n3cc(NC(=O)Nc4ccccc4Cl)cn3)c2)n1 [Example I-11, 3-(4-(3-(2-chlorophenyl)ureido)-1H-pyrazol-1-yl)-N-((6-methylpyridin-2-yl)methyl)benzamide] | 6.00 to 6.70 | 6.00 to 6.70 | < 6.00 |  |  |
| Cc1cc(NC(=O)c2cccc(-n3cc(NC(=O)Nc4ccccc4Cl)cn3)c2)cc(C)n1 [Example I-22, 3-(4-(3-(2-chlorophenyl)ureido)-1H-pyrazol-1-yl)-N-(2,6-dimethylpyridin-4-yl)benzamide] | 6.00 to 6.70 | > 6.70 | < 6.00 |  |  |
| Cc1ccc(CNC(=O)c2cccc(-n3cc(NC(=O)Nc4ccccc4Cl)cn3)c2)cn1 [Example I-9, 3-(4-(3-(2-chlorophenyl)ureido)-1H-pyrazol-1-yl)-N-((6-methylpyridin-3-yl)methyl)benzamide] | 6.00 to 6.70 | 6.00 to 6.70 | < 6.00 |  |  |
| O=C(Nc1cnn(-c2cccc(C(=O)Nc3cnn(CCN4CCCC4)c3)c2)c1)Nc1ccccc1Cl [Example I-101, 3-(4-(3-(2-chlorophenyl)ureido)-1H-pyrazol-1-yl)-N-(1-(2-(pyrrolidin-1-yl)ethyl)-1H-pyrazol-4-yl)benzamide] | > 6.70 | > 6.70 | < 6.00 |  |  |
| Cn1nc(C2CC2)cc1NC(=O)c1cccc(-n2cc(NC(=O)Nc3ccccc3Cl)cn2)c1 [Example I-89, 3-(4-(3-(2-chlorophenyl)ureido)-1H-pyrazol-1-yl)-N-(3-cyclopropyl-1-methyl-1 H-pyrazol-5-yl)benzamide] | > 6.70 | > 6.70 | < 6.00 |  |  |
| Cc1cc(NC(=O)c2cccc(-n3cc(NC(=O)Nc4ccccc4Cl)cn3)c2)ccn1 [Example I-10, 3-(4-(3-(2-chlorophenyl)ureido)-1H-pyrazol-1-yl)-N-(2-methylpyridin-4-yl)benzamide] | > 6.70 | > 6.70 | < 6.00 |  |  |
| CC(C)n1cc(NC(=O)c2cccc(-n3cc(NC(=O)Nc4ccccc4Cl)cn3)c2)cn1 [Example I-86, 3-(4-(3-(2-chlorophenyl)ureido)-1H-pyrazol-1-yl)-N-(1-isopropyl-1H-pyrazol-4-yl)benzamide] | 6.00 to 6.70 | > 6.70 | < 6.00 |  |  |
| Cc1cc(NC(=O)c2cccc(-n3cc(NC(=O)Nc4ccccc4C)cn3)c2)ccn1 [Example I-51, N-(2-methylpyridin-4-yl)-3-(4-(3-(o-tolyl)ureido)-1H-pyrazol-1-yl)benzamide] | > 6.70 | > 6.70 | 6.00 to 6.70 |  |  |

The next lines start with the values.

| pEC50 (JNK2α2/SAPK1c, active) | pEC50 [1] | pEC50 (JNK1α1/SAP1α, Active) | IC50 [1] | IC50 (JNK1α1/SAP1α, Active) | Compound |
| --- | --- | --- | --- | --- | --- |
|  |  |  | < 200 nM | < 200 nM | O=c1ccc2cnc(N[C@H]3CC[C@H](O)CC3)nc2n1C1CCCC1 [Example II-20, Trans-8-Cyclopentyl-2-(4-hydroxy-cyclohexylamino)-8H-pyrido[2,3-d]pyrimidin-7-one] |
|  |  |  | > 1000 nM | 200 to 1000 nM | CC(C)n1c(=O)ccc2cnc(NC3CCN(Cc4ccccc4)CC3)nc21 [Example II-6, 2-(1-Benzyl-piperidin-4-ylamino)-8-isopropyl-8H-pyrido[2,3-d]pyrimidin-7-one] |
|  |  |  |  | > 1000 nM | c1cc2cnc(NC3CCNCC3)nc2nc1C1CC1 [Example II-40, 7-cyclopropyl-N-(piperidin-4-yl)pyrido[2,3-d]pyrimidin-2-amine] |
| 6.00 to 6.70 |  |  |  |  | Cc1ccc(-c2ncn(-c3ccc(Nc4nccc(-c5cccc(N6CCOCC6)c5)n4)cc3)n2)cn1 [SR-3306, reference compound] |
|  |  |  |  | > 1000 nM | c1cc2cnc(NC3CCNCC3)nc2nc1N1CCCC1 [Example II-49, N-(piperidin-4-yl)-7-(pyrrolidin-1-yl)pyrido[2,3-d]pyrimidin-2-amine] |
|  |  |  | < 200 nM | < 200 nM | Cn1c(=O)ccc2cnc(N[C@H]3CC[C@H](O)CC3)nc21 [Example II-29, Trans 2-((4-hydroxycyclohexyl)amino)-8-methylpyrido[2,3-d]pyrimidin-7(8H)-one] |
|  |  |  |  | > 1000 nM | CCNC(=O)N1CCC(Nc2ncc3ccc(C4CC4)nc3n2)CC1 [Example II-42, 4-((7-cyclopropylpyrido[2,3-d]pyrimidin-2-yl)amino)-N-ethylpiperidine-1-carboxamide] |
|  |  |  | 200 to 1000 nM | 200 to 1000 nM | O=C(NC1CCCC1)N[C@H]1CC[C@H](Nc2ncc3ccc(=O)[nH]c3n2)CC1 [Example II-28] |
|  |  |  | 200 to 1000 nM | 200 to 1000 nM | CC(C)NC(=O)N1CCC(Nc2ncc3ccc(=O)n(C4CCCC4)c3n2)CC1 [Example II-21, 4-(8-Cyclopentyl-7-oxo-7,8-dihydro-pyrido[2,3-d]pyrimidin-2-ylamino)-piperidine-1-carboxylic acid isopropylamide] |
